# Measurements as given in patent US20070173462A1, “Treatment of diseases associated with the use of antibiotics” (Optimer Pharmaceuticals, Inc., priority 2004, published 2007).
# Read-outs that look alike come from different tables or passages of the source.
# Key:
# Clostridium difficile = assay: MIC, 207 clinical isolates of C. difficile; assay type: cell-based; settings: clinical isolates, n=207
# Excerpt: Compound I was additionally tested against anaerobic clinical isolates and against aerobic bacteria. […] The compound was also active against clinical strains of Staphylococcus sp. and Enterococcus sp.
# C. bolteae = assay: microbe, parasite or virus in culture; assay type: cell-based; settings: clinical isolates, n=6
# C. clostridioforme = assay: organism not typed; assay type: cell-based; settings: clinical isolates, n=5
# C. difficile [1] = assay: microbe, parasite or virus in culture; assay type: cell-based; settings: clinical isolates, n=23
# C. glycolicum = assay: microbe, parasite or virus in culture; assay type: cell-based; settings: clinical isolates, n=9
# C. innocuum = assay: microbe, parasite or virus in culture; assay type: cell-based; settings: clinical isolates, n=9
# C. paraputrificum = assay: microbe, parasite or virus in culture; assay type: cell-based; settings: clinical isolates, n=10
# C. perfringens = assay: microbe, parasite or virus in culture; assay type: cell-based
# C. ramosum = assay: microbe, parasite or virus in culture; assay type: cell-based; settings: clinical isolates, n=10
# C. sordellii = assay: microbe, parasite or virus in culture; assay type: cell-based; settings: clinical isolates, n=5
# Other Clostridium sp. = assay: microbe, parasite or virus in culture; assay type: cell-based; settings: clinical isolates, n=11
# [2] = test system: Bacteroides fragilis group; assay: microbe, parasite or virus in culture; assay type: cell-based; settings: clinical gastrointestinal isolates, n=54
# Veillonella sp. = assay: microbe, parasite or virus in culture; assay type: cell-based; settings: Veillonella; clinical gastrointestinal isolates, n=10
# [3] = test system: Other anaerobic Gram negative rods; assay: organism not typed; assay type: cell-based; settings: clinical gastrointestinal isolates, n=51
# [4] = test system: Non-spore forming Gram positive rods; assay: organism not typed; assay type: cell-based; settings: clinical gastrointestinal isolates, n=64
# [5] = test system: Anaerobic Gram positive cocci; assay: organism not typed; assay type: cell-based; settings: clinical gastrointestinal isolates, n=49
# [6] = test system: Streptococcus milleri group; assay: microbe, parasite or virus in culture; assay type: cell-based; settings: clinical gastrointestinal isolates, n=14
# Streptococcus sp. = assay: microbe, parasite or virus in culture; assay type: cell-based; settings: clinical gastrointestinal isolates, n=9
# Eschericia coli = assay: organism not typed; assay type: cell-based; settings: clinical gastrointestinal isolates, n=10
# Enterobacter sp. = assay: microbe, parasite or virus in culture; assay type: cell-based; settings: Enterobacter; clinical gastrointestinal isolates, n=20
# Klebsiella sp. = assay: microbe, parasite or virus in culture; assay type: cell-based; settings: clinical gastrointestinal isolates, n=10
# Proteus mirabilis = assay: microbe, parasite or virus in culture; assay type: cell-based; settings: clinical gastrointestinal isolates, n=10
# Pseudomonas aeruginosa = assay: microbe, parasite or virus in culture; assay type: cell-based; settings: clinical gastrointestinal isolates, n=10
# Enterococcus sp. = assay: microbe, parasite or virus in culture; assay type: cell-based; settings: clinical gastrointestinal isolates, n=22
# Stephylococcus sp. = assay: organism not typed; assay type: cell-based; settings: clinical gastrointestinal isolates, n=19
# toxigenic C. difficile = assay: Hamster model of clindamycin-induced Clostridium difficile associated diarrhea/colitis; assay type: in vivo, Syrian hamsters; settings: oral treatment for 7 days; untreated infection uniformly fatal between days two and six
# Procedure: Animals were treated with two oral doses of clindamycin at 100 mg/kg. Three days after the second dose of clindamycin, they were inoculated with toxigenic C. difficile spores. […] Animals were observed daily for the presence or absence of diarrhea. Necropsies were performed on some animals that died during the experiment, and cecal contents were assayed for C. difficile toxin A. Hamsters were monitored for 20 days, and the cumulative mortality during this period was recorded (FIG. 1).
# C. difficile [7] = assay: MIC via agar dilution, 110 genetically distinct clinical isolates of C. difficile; assay type: cell-based
smiles,measurement,setting,value
CN[C@H](CC(C)C)C(=O)N[C@H]1C(=O)N[C@@H](CC(N)=O)C(=O)N[C@H]2C(=O)N[C@H]3C(=O)N[C@H](C(=O)N[C@H](C(=O)O)c4cc(O)cc(O)c4-c4cc3ccc4O)[C@H](O)c3ccc(c(Cl)c3)Oc3cc2cc(c3O[C@@H]2O[C@H](CO)[C@@H](O)[C@H](O)[C@H]2O[C@H]2C[C@](C)(N)[C@H](O)[C@H](C)O2)Oc2ccc(cc2Cl)[C@H]1O [Vancomycin],MIC90,Clostridium difficile; Clostridioides difficile,0.5 µg/mL
same,MIC50,"Clostridium difficile; Clostridioides difficile, read-out: MIC50",0.5 µg/mL
same,Range (MIC),Clostridium difficile,0.0156-0.5
same,MIC50,C. bolteae; Enterocloster bolteae,16 µg/mL
same,MIC90,C. bolteae; Enterocloster bolteae,16 µg/mL
same,Range (MIC),C. bolteae,1 to 16 µg/mL
same,MIC50,C. clostridioforme,1 µg/mL
same,MIC90,C. clostridioforme,8 µg/mL
same,Range (MIC),C. clostridioforme,1 to 8 µg/mL
same,MIC50,C. difficile [1]; Clostridioides difficile,1 µg/mL
same,MIC90,C. difficile [1]; Clostridioides difficile,2 µg/mL
same,Range (MIC),C. difficile [1],0.5-4^ μg/mL
same,MIC50,C. glycolicum; Terrisporobacter glycolicus,1 µg/mL
same,MIC90,C. glycolicum; Terrisporobacter glycolicus,1 µg/mL
same,Range (MIC),C. glycolicum,0.5-1^ μg/mL
same,MIC50,C. innocuum; [Clostridium] innocuum,16 µg/mL
same,MIC90,C. innocuum; [Clostridium] innocuum,16 µg/mL
same,Range (MIC),C. innocuum,8 to 16 µg/mL
same,MIC50,C. paraputrificum; Clostridium paraputrificum,2 µg/mL
same,MIC90,C. paraputrificum; Clostridium paraputrificum,2 µg/mL
same,Range (MIC),C. paraputrificum,1 to 2 µg/mL
same,Range (MIC),C. perfringens,0.5-1^ μg/mL
same,MIC50,C. perfringens; Clostridium perfringens,1 µg/mL
same,MIC90,C. perfringens; Clostridium perfringens,1 µg/mL
same,MIC50,C. ramosum; Thomasclavelia ramosa,4 µg/mL
same,MIC90,C. ramosum; Thomasclavelia ramosa,8 µg/mL
same,Range (MIC),C. ramosum,4 to 8 µg/mL
same,MIC50,C. sordellii; Paraclostridium sordellii,1 µg/mL
same,MIC90,C. sordellii; Paraclostridium sordellii,1 µg/mL
same,Range (MIC),C. sordellii,1 µg/mL
same,MIC50,Other Clostridium sp.; Clostridium,1 µg/mL
same,MIC90,Other Clostridium sp.; Clostridium,16 µg/mL
same,Range (MIC),Other Clostridium sp.,1 to 64 µg/mL
same,MIC50,[2]; Bacteroides fragilis,64 µg/mL
same,MIC90,[2]; Bacteroides fragilis,128 µg/mL
same,Range (MIC),[2],16 to 256 µg/mL
same,MIC50,Veillonella sp.,512 µg/mL
same,MIC90,Veillonella sp.,512 µg/mL
same,MIC50,[3],512 µg/mL
same,MIC90,[3],> 1020 µg/mL
same,MIC50,[4],128 µg/mL
same,MIC90,[4],> 1020 µg/mL
same,MIC50,[5],1 µg/mL
same,MIC90,[5],8 µg/mL
same,MIC50,[6]; Streptococcus milleri,1 µg/mL
same,MIC90,[6]; Streptococcus milleri,1 µg/mL
same,Range (MIC),[6],1 µg/mL
same,MIC50,Streptococcus sp.; Streptococcus,0.5 µg/mL
same,MIC90,Streptococcus sp.; Streptococcus,1 µg/mL
same,Range (MIC),Streptococcus sp.,0.5 to 1 µg/mL
same,MIC50,Eschericia coli,512 µg/mL
same,MIC90,Eschericia coli,> 1020 µg/mL
same,MIC50,Enterobacter sp.,> 1020 µg/mL
same,MIC90,Enterobacter sp.,> 1020 µg/mL
same,MIC50,Klebsiella sp.; Klebsiella,> 1020 µg/mL
same,MIC90,Klebsiella sp.; Klebsiella,> 1020 µg/mL
same,Range (MIC),Klebsiella sp.,>1024 µg/mL
same,MIC50,Proteus mirabilis; Proteus mirabilis,> 1020 µg/mL
same,MIC90,Proteus mirabilis; Proteus mirabilis,> 1020 µg/mL
same,Range (MIC),Proteus mirabilis,>1024 µg/mL
same,MIC50,Pseudomonas aeruginosa,> 1020 µg/mL
same,MIC90,Pseudomonas aeruginosa,> 1020 µg/mL
same,MIC50,Enterococcus sp.; Enterococcus,1 µg/mL
same,MIC90,Enterococcus sp.; Enterococcus,4 µg/mL
same,Range (MIC),Enterococcus sp.,0.5-4 ^ μg/mL
same,MIC50,Stephylococcus sp.,2 µg/mL
same,MIC90,Stephylococcus sp.,4 µg/mL
same,Range (MIC),Stephylococcus sp.,1 to 4 µg/mL
same,protection from infection (cumulative mortality over 20 days),toxigenic C. difficile,protected the animals from infection
Cc1ncc([N+](=O)[O-])n1CCO [Metronidazole],Range (MIC),"C. difficile [7]; 110 clinical isolates, agar dilution",0.025 to 0.5 µg/mL
same,MIC,"C. difficile [7]; Clostridioides difficile, isolate ORG ID 61 5930, read-out: MIC",0.25 µg/mL
same,MIC,"C. difficile [7]; Clostridioides difficile, isolate ORG ID 63 6029, read-out: MIC",0.25 µg/mL
same,MIC,"C. difficile [7]; Clostridioides difficile, isolate ORG ID 64 5940, read-out: MIC",0.25 µg/mL
same,MIC,"C. difficile [7]; Clostridioides difficile, isolate ORG ID 65 5967, read-out: MIC",0.25 µg/mL
same,MIC,"C. difficile [7]; Clostridioides difficile, isolate ORG ID 67 6367, read-out: MIC",0.25 µg/mL
same,MIC,"C. difficile [7]; Clostridioides difficile, isolate ORG ID 69 6370, read-out: MIC",0.25 µg/mL
same,MIC,"C. difficile [7]; Clostridioides difficile, isolate ORG ID 70 6376, read-out: MIC",0.25 µg/mL
same,MIC,"C. difficile [7]; Clostridioides difficile, isolate ORG ID 71 6379, read-out: MIC",0.25 µg/mL
same,MIC,"C. difficile [7]; Clostridioides difficile, isolate ORG ID 72 6380, read-out: MIC",0.25 µg/mL
same,MIC,"C. difficile [7]; Clostridioides difficile, isolate ORG ID 73 6382, read-out: MIC",0.25 µg/mL
same,MIC,"C. difficile [7]; Clostridioides difficile, isolate ORG ID 76 6389, read-out: MIC",0.25 µg/mL
same,MIC,"C. difficile [7]; Clostridioides difficile, isolate ORG ID 78 6392, read-out: MIC",0.03 µg/mL
same,MIC,"C. difficile [7]; Clostridioides difficile, isolate ORG ID 82 6329, read-out: MIC",0.03 µg/mL
same,MIC,"C. difficile [7]; Clostridioides difficile, isolate ORG ID 84 6331, read-out: MIC",0.25 µg/mL
same,MIC,"C. difficile [7]; Clostridioides difficile, isolate ORG ID 88 6335, read-out: MIC",0.25 µg/mL
same,MIC,"C. difficile [7]; Clostridioides difficile, isolate ORG ID 89 6336, read-out: MIC",0.5 µg/mL
same,MIC,"C. difficile [7]; Clostridioides difficile, isolate ORG ID 94 6343, read-out: MIC",0.06 µg/mL
same,MIC,"C. difficile [7]; Clostridioides difficile, isolate ORG ID 98 6350, read-out: MIC",0.5 µg/mL
same,MIC,"C. difficile [7]; Clostridioides difficile, isolate ORG ID 100 6353, read-out: MIC",0.25 µg/mL
same,MIC,"C. difficile [7]; Clostridioides difficile, isolate ORG ID 101 6354, read-out: MIC",0.06 µg/mL
same,MIC,"C. difficile [7]; Clostridioides difficile, isolate ORG ID 104 6060, read-out: MIC",0.25 µg/mL
same,MIC,"C. difficile [7]; Clostridioides difficile, isolate ORG ID 106 6078, read-out: MIC",0.25 µg/mL
same,MIC,"C. difficile [7]; Clostridioides difficile, isolate ORG ID 115 5985, read-out: MIC",0.25 µg/mL
same,MIC,"C. difficile [7]; Clostridioides difficile, isolate ORG ID 120 6057, read-out: MIC",0.25 µg/mL
same,MIC,"C. difficile [7]; Clostridioides difficile, isolate ORG ID 121 6072, read-out: MIC",0.25 µg/mL
same,MIC,"C. difficile [7]; Clostridioides difficile, isolate ORG ID 122 6111, read-out: MIC",0.25 µg/mL
same,MIC,"C. difficile [7]; Clostridioides difficile, isolate ORG ID A1 1535, read-out: MIC",0.25 µg/mL
same,MIC,"C. difficile [7]; Clostridioides difficile, isolate ORG ID AH1 3430, read-out: MIC",0.25 µg/mL
same,MIC,"C. difficile [7]; Clostridioides difficile, isolate ORG ID BE1 4307, read-out: MIC",0.25 µg/mL
same,MIC,"C. difficile [7]; Clostridioides difficile, isolate ORG ID BH1 4506, read-out: MIC",0.06 µg/mL
same,MIC,"C. difficile [7]; Clostridioides difficile, isolate ORG ID BN1 1322, read-out: MIC",0.25 µg/mL
same,MIC,"C. difficile [7]; Clostridioides difficile, isolate ORG ID BV1 1183, read-out: MIC",0.25 µg/mL
same,MIC,"C. difficile [7]; Clostridioides difficile, isolate ORG ID BX1 4271, read-out: MIC",0.25 µg/mL
same,MIC,"C. difficile [7]; Clostridioides difficile, isolate ORG ID CJ1 893, read-out: MIC",0.025 µg/mL
same,MIC,"C. difficile [7]; Clostridioides difficile, isolate ORG ID CN1 667, read-out: MIC",0.25 µg/mL
same,MIC,"C. difficile [7]; Clostridioides difficile, isolate ORG ID CP1 5491, read-out: MIC",0.25 µg/mL
same,MIC,"C. difficile [7]; Clostridioides difficile, isolate ORG ID D1 1360, read-out: MIC",0.25 µg/mL
same,MIC,"C. difficile [7]; Clostridioides difficile, isolate ORG ID J1 5971, read-out: MIC",0.25 µg/mL
same,MIC,"C. difficile [7]; Clostridioides difficile, isolate ORG ID K1 4305, read-out: MIC",0.25 µg/mL
same,MIC,"C. difficile [7]; Clostridioides difficile, isolate ORG ID R6 6015, read-out: MIC",0.25 µg/mL
same,MIC,"C. difficile [7]; Clostridioides difficile, isolate ORG ID W1 3931, read-out: MIC",0.5 µg/mL
same,MIC90,"C. difficile [7]; Clostridioides difficile, 110 clinical isolates, agar dilution",0.25 µg/mL
same,MIC,"C. difficile [7]; Clostridioides difficile, 110 clinical isolates, agar dilution, read-out: Geometric Mean (MIC)",0.15 µg/mL
same,protection from infection (cumulative mortality over 20 days),toxigenic C. difficile,protected the animals from infection
